Experimental data as given in patent US20260335323A1, “CHIMERIC MOLECULE” (UCL Business Ltd, priority 2023, published 2026).

Target: T1, ULK1 (Homo sapiens, UniProt O75385)
T1 sequence (O75385 1-1050): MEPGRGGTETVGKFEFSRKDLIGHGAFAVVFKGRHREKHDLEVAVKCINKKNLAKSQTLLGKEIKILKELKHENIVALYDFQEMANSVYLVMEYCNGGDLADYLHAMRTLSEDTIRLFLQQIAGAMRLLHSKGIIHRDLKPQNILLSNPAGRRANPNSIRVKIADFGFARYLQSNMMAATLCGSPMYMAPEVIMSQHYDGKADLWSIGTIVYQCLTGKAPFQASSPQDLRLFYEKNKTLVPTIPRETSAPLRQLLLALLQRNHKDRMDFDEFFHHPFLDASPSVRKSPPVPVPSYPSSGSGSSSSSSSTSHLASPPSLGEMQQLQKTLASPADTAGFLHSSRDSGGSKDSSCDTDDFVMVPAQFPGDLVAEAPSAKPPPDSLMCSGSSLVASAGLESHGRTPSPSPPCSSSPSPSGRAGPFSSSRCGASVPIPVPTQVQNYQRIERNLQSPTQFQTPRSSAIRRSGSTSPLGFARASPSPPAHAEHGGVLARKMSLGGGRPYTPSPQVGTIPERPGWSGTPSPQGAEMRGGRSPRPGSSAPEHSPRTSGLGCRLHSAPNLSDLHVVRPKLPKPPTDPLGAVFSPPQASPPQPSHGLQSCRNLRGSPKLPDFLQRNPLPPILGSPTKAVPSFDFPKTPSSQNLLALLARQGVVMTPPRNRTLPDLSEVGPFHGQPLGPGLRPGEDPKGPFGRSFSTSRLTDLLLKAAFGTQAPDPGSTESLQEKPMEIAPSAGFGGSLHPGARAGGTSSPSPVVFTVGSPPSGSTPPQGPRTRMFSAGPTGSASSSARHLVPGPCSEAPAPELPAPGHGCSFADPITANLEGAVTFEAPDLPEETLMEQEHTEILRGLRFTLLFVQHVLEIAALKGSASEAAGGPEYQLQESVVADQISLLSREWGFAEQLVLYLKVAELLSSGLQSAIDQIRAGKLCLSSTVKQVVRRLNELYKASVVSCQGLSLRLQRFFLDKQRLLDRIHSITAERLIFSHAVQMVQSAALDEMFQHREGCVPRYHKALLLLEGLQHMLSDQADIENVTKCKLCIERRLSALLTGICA
Test: ULK1/TOM20 co-localisation immunofluorescence in PANC-1 cells
Format: cell-based
Parameters: pSer317 blot or TOM20 co-localisation
Procedure: FIG. 5. ULKTACs induce potent mitophagy after colocalisation and local activation of ULK1 at mitochondria (A) Representative immunofluorescence of PANC-1 cells treated with CCCP, ULKTACs or both and immunostained for TOM20 and ULK1 and counterstained with Alexa 488 and 568, respectively. Nuclei stained with Hoechst 33342. (B) Quantification of the colocalised ULK1 to TOM20 spot area of PANC-1 cells treated with DMSO, 5 mM CCCP, 10 mM BL-918, 10 mM BL-918+5 mM CCCP, […] NZ-65, […] NZ-65+5 mM CCCP, […] NZ-66, […] NZ-66+5 mM CCCP, 50 mM TSPO ligand, […] NZ-65+50 mM TSPO ligand, […] NZ-66+50 mM TSPO ligand. (C) Western blot of SH-SY5Y cells treated with 1 mM ULKTACs, 5 mM CCCP or both, probed for Mfn2, b-Actin and Tom20—quantifications are shown in (D) for Mfn2, normalised to Actin. (E) Representative images of SH-SY5Y cells stably expressing the mito-mKeima reporter treated with 3 mM CCCP, NZ-65 or both. Nuclei were stained with Hoechst 33342, healthy mitochondria are shown in green and mitochondria in lysosomes are shown in red. Fold change in mitophagy index over time after treatment for the indicated timepoints with title treatments alone or co-treated with 1.25 mM ULKTAC or 10 mM ULKTAC NZ-65 (F) or NZ-66 (G). Fold change in mitophagy index over time after treatment for the indicated timepoints with DMSO, 1.25 µM NZ-65 or NZ-66±50 µM TSPO ligand under co-treatment with DMSO (H) or 3 μM CCCP (I). […] Normalised to number of nuclei. All data shown are mean±SEM, n=3, *p<0.05, ** p<0.01, *** p<0.001. For colocalisation and TMRM experiments, one-way ANOVA with Dunnett's multiple comparisons test. For western blots, one-way ANOVA with Tukey's multiple comparisons test and unpaired t-test. For mito-mKeima experiment, two-way ANOVA with Tukey's multiple comparisons test.
For TOM20/ULK1 immunofluorescence, cells were seeded in a 384 well PerkinElmer CellCarrier Ultra plate 24 hours prior to treatment with compounds. Cells were treated for 18 hours after which they were fixed with 4% paraformaldehyde (PFA) in phosphate buffered saline (PBS) and blocked with 10% FBS and 0.1% Triton in PBS. Plates were incubated at 4° C. overnight, with 1:400 mouse anti-TOM20 (Santa Cruz, #sc-17764) and 1:400 rabbit anti-ULK1 (Cell Signalling Technologies, #0854). The following day, plates were incubated with 1:1000 goat anti-mouse Alexa 488 (ThermoFisher Scientific, #A-11029), 1:1000 goat anti-rabbit Alexa 568 (ThermoFisher Scientific, #A-11011) and 1.62 μM Hoechst 33342 at room temperature for 1 hour before imaging. For ATP5a/LC3 immunofluorescence, cells were fixed with ice-cold 1:1 MeOH: acetone and blocked with 3% BSA (Sigma-Aldrich, #A3803) in Dulbecco's PBS (D-PBS). Plates were incubated overnight at 4° C. with 1:400 LC3B (D11) XP Rabbit mAb Alexa Fluor 647 Conjugate (Cell Signalling Technologies, #65299) and 1:400 ATP5a (Cell Signalling Technologies, #18023) lightning-linked to Alexa Fluor 488. The following day, plates were incubated with 1.62 […] at room temperature for 1 hour before imaging. Excitation and emission spectra for each channel are as follows: Hoechst 33342=405/435-480 nm, Alexa 488=488/500-550 nm and Alexa 568=561/570-630 nm. Images were acquired at 40× and 63× magnification with water immersion lens.
To understand the temporal kinetics of NZ-65 and NZ-66, we assessed the recruitment of ULK1 to mitochondria, using co-localisation of ULK1 and TOM20 by immunofluorescence. […] After showing the co-localisation of ULK1 to the outer mitochondrial membrane (OMM) after ULKTAC treatment, we wanted to determine whether the ULKTACs induced mitophagy. To do this, we measured changes in Mfn2 under basal conditions and co-treatment with CCCP (FIG. 5C, D).

SMILES | co-localisation of ULK1 and TOM20 (PANC-1, 18 hours, alone) | co-localisation of ULK1 and TOM20 (PANC-1, CCCP co-treatment)
O=C(Nc1ccc(F)cc1F)[C@H](NC(=S)Nc1cc(C(F)(F)F)cc(C(F)(F)F)c1)c1ccccc1 [BL-918, reference compound] | neither BL-918 nor the TSPO ligand alone induce co-localisation | 
O=C(Nc1cc(C(F)(F)F)cc(C(F)(F)F)c1)N[C@@H](C(=O)Nc1ccc(F)cc1F)c1ccc(OCc2cn(CCOCCOCCNC(=O)C(=O)c3c(-c4ccccc4)[nH]c4ccccc34)nn2)cc1 [NZ-65, (R)-2-(3-(3,5-bis(trifluoromethyl)phenyl)ureido)-N-(2,4-difluorophenyl)-2-(4-((1-(2-(2-(2-(2-oxo-2-(2-phenyl-1H-indol-3-yl)acetamido)ethoxy)ethoxy)ethyl)-1H-1,2,3-triazol-4-yl)methoxy)phenyl) acetamide] | increased co-localisation of ULK1 and TOM20 | enhanced by CCCP co-treatment
O=C(Nc1cc(C(F)(F)F)cc(C(F)(F)F)c1)N[C@@H](C(=O)Nc1ccc(F)cc1F)c1ccc(OCc2cn(CCCCCCNC(=O)C(=O)c3c(-c4ccccc4)[nH]c4ccccc34)nn2)cc1 [NZ-66, (R)-2-(3-(3,5-bis(trifluoromethyl)phenyl)ureido)-N-(2,4-difluorophenyl)-2-(4-((1-(6-(2-oxo-2-(2-phenyl-1H-indol-3-yl)acetamido)hexyl)-1H-1,2,3-triazol-4-yl)methoxy)phenyl) acetamide] | increased co-localisation of ULK1 and TOM20 | enhanced by CCCP co-treatment
